Each structure is given as a SMILES string. Structures can show the parent of a compound that is named as a salt.

18 molecules from US20230203043A1, “NOVEL IMIDAZOPYRAZINE DERIVATIVES” (Hoffmann-La Roche Inc., priority 2020, published 2023) can be followed below.

The first experiment concerns Acinetobacter baumannii ATCC17961. The experiment is described as follows: Antimicrobial susceptibility testing: 90% growth inhibitory concentration (IC90) determination in Iso-Sensitest broth, OD600 growth. Format: cell-based. The following applies: Acinetobacter baumannii, ATCC17961, 16 h, read-out: A. baumannii ATCC 17961 IC90 (uM), strain ATCC 17961, OD600 growth over 16 h. Put shortly: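 OD600 read every 20 min for 16 h at 35±2° C; inhibition taken in log phase to derive IC90. Twofold, 10-point dilutions (e.g. 50–0.097 μM final), inoculum ~5×10^(5) CFU/ml.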
In the case of `CCc1cc(Nc2nccn3c(-c4c[nH]nc4C(F)(F)F)cnc23)ccc1C(=O)NCCNC(=O)[C@H]1CC[C@H](N)C1` [Example 588, N-(2-((1S,3S)-3-aminocyclopentane-1-carboxamido)ethyl)-2-ethyl-4-((3-(3-(trifluoromethyl)-1H-pyrazol-4-yl)imidazo[1,2-a]pyrazin-8-yl)amino)benzamide formate], the IC90 (usually the concentration needed for an effect of 90%) came out at 0.46 µM.

As for `CCc1cc(Nc2nccn3c(-c4cn(CC(F)F)nc4C(F)(F)F)cnc23)ccc1C(=O)NCC(=O)N1CCCC(N)C1` (stereo not drawn) [Example 544, N-[2-(3-amino-1-piperidyl)-2-oxo-ethyl]-4-[[3-[1-(2,2-difluoroethyl)-3-(trifluoromethyl)pyrazol-4-yl]imidazo[1,2-a]pyrazin-8-yl]amino]-2-ethyl-benzamide formate], the concentration for an effect of 90% (IC90) was 0.232 µM.

Consider `C[C@@H](NC(=O)c1ccc(Nc2nccn3c(-c4cn(CC#N)nc4C(F)(F)F)cnc23)cc1Cl)C(=O)NC1CC(N)C1` (stereo partly drawn) [Example 683, N-[(1R)-2-[(3-aminocyclobutyl)amino]-1-methyl-2-oxo-ethyl]-2-chloro-4-[[3-[1-(cyanomethyl)-3-(trifluoromethyl)pyrazol-4-yl]imidazo[1,2-a]pyrazin-8-yl]amino]benzamide formate], for which the IC90 came to 0.336 µM.

Turning to `Cc1cc(Nc2nccn3c(-c4c[nH]nc4C(F)(F)F)cnc23)ccc1C(=O)NCCNC(=O)[C@@H]1C[C@@H](O)CN1` [Example 444, formic acid; (2S,4R)-4-hydroxy-N-[2-[[2-methyl-4-[[3-[3-(trifluoromethyl)-1H-pyrazol-4-yl]imidazo[1,2-a]pyrazin-8-yl]amino]benzoyl]amino]ethyl]pyrrolidine-2-carboxamide], the IC90 was 1.43 µM.

For `N[C@H]1CC[C@H](C(=O)N2CCN(C(=O)c3ccc(Nc4nccn5c(-c6c[nH]nc6C(F)(F)F)cnc45)cc3Cl)CC2)C1` [Example 575, (4-((1S,3S)-3-aminocyclopentane-1-carbonyl)piperazin-1-yl)(2-chloro-4-((3-(3-(trifluoromethyl)-1H-pyrazol-4-yl)imidazo[1,2-a]pyrazin-8-yl)amino)phenyl)methanone formate], the IC90 was 0.175 µM.

On to `CCc1cc(Nc2nccn3c(-c4cn(CC#N)nc4C(F)(F)F)cnc23)ccc1C(=O)NCCNC(=O)[C@@H]1CC[C@@H](N)C1` [Example 587, N-(2-((1R,3R)-3-aminocyclopentane-1-carboxamido)ethyl)-4-((3-(1-(cyanomethyl)-3-(trifluoromethyl)-1H-pyrazol-4-yl)imidazo[1,2-a]pyrazin-8-yl)amino)-2-ethylbenzamide formate], for which the concentration for an effect of 90% (IC90) was 0.221 µM.

The experiment is the same for the next values; noted with them: Acinetobacter baumannii, ATCC17961, 16 h, strain ATCC 17961, OD600 growth over 16 h, read-out: A. baumannii ATCC 17961 IC90.
As to `CCc1cc(Nc2nccn3c(-c4cn(CCOC(F)(F)F)nc4C(F)(F)F)cnc23)ccc1C(=O)NCCOCCN` [Example 622, N-(2-(2-aminoethoxy)ethyl)-2-ethyl-4-((3-(1-(2-(trifluoromethoxy)ethyl)-3-(trifluoromethyl)-1H-pyrazol-4-yl)imidazo[1,2-a]pyrazin-8-yl)amino)benzamide], the 90% effect concentration (IC90) is 0.148 µM.

In the case of `CCc1cc(Nc2nccn3c(-c4cn(CCC(C)(C)Cl)nc4C(F)(F)F)cnc23)ccc1C(=O)NCCOCCN` [Example 655, N-(2-(2-aminoethoxy)ethyl)-4-((3-(1-(3-chloro-3-methylbutyl)-3-(trifluoromethyl)-1H-pyrazol-4-yl)imidazo[1,2-a]pyrazin-8-yl)amino)-2-ethylbenzamide], the IC90 was 0.266 µM.

As to `CCc1cc(Nc2nccn3c(-c4cn(CC#N)nc4C(F)(F)F)cnc23)ccc1C(=O)NCCOC[C@@H](C)N` [Example 156, N-[2-[(2R)-2-aminopropoxy]ethyl]-4-[[3-[1-(cyanomethyl)-3-(trifluoromethyl)pyrazol-4-yl]imidazo[1,2-a]pyrazin-8-yl]amino]-2-ethylbenzamide], the concentration for an effect of 90% (IC90) was 0.627 µM.

With `Cc1cc(Nc2nccn3c(-c4c[nH]nc4C(F)(F)F)cnc23)cc(F)c1C(=O)NCCOCCN` [Example 80, N-[2-(2-aminoethoxy)ethyl]-2-fluoro-6-methyl-4-[[3-[3-(trifluoromethyl)-1H-pyrazol-4-yl]imidazo[1,2-a]pyrazin-8-yl]amino]benzamide], the IC90 was found to be 0.737 µM.

Regarding `CNC(=O)c1ccc(Nc2nccn3c(-c4cn(Cc5cc[nH]n5)nc4C(F)(F)F)cnc23)cc1Cl` [Example 284, 2-chloro-N-methyl-4-[[3-[1-(1H-pyrazol-3-ylmethyl)-3-(trifluoromethyl)pyrazol-4-yl]imidazo[1,2-a]pyrazin-8-yl]amino]benzamide], the 90% effect concentration (IC90) was determined as 0.177 µM.

`CNC(=O)c1ccc(Nc2nccn3c(-c4cn(CCC#N)nc4C(F)(F)F)cnc23)cc1Cl` [Example 358, 2-chloro-4-[[3-[1-(2-cyanoethyl)-3-(trifluoromethyl)pyrazol-4-yl]imidazo[1,2-a]pyrazin-8-yl]amino]-N-methylbenzamide]: the IC90 is 0.189 µM.

Take `O=C(c1ccc(Nc2nccn3c(-c4c[nH]nc4C(F)(F)F)cnc23)cc1F)N1CCNCC1` [Example 805, (2-fluoro-4-((3-(3-(trifluoromethyl)-1H-pyrazol-4-yl)imidazo[1,2-α]pyrazin-8-yl)amino)phenyl)(piperazin-1-yl)methanone hydrochloride]: the IC90 stood at 0.88 µM.

Consider `O=C(NC1CNC1)N1CCN(C(=O)c2ccc(Nc3nccn4c(-c5cn(CC(F)F)nc5C(F)(F)F)cnc34)cc2Cl)CC1` [Example 581, N-(azetidin-3-yl)-4-(2-chloro-4-((3-(1-(2,2-difluoroethyl)-3-(trifluoromethyl)-1H-pyrazol-4-yl)imidazo[1,2-a]pyrazin-8-yl)amino)benzoyl) piperazine-1-carboxamide formate], for which the 90% effect concentration (IC90) stood at 0.354 µM.

With `CCc1cc(Nc2nccn3c(-c4cn(CC(F)F)nc4C(F)(F)F)cnc23)ccc1C(=O)NCC(=O)NCC1CCNCC1` [Example 550, 4-[[3-[1-(2,2-difluoroethyl)-3-(trifluoromethyl)pyrazol-4-yl]imidazo[1,2-a]pyrazin-8-yl]amino]-2-ethyl-N-[2-oxo-2-(4-piperidylmethylamino)ethyl] benzamide formate], the 90% effect concentration (IC90) amounted to 0.261 µM.

For the molecule `CCc1cc(Nc2nccn3c(-c4cn(Cc5ccncn5)nc4C(F)(F)F)cnc23)ccc1C(=O)NC` [Example 282, 2-ethyl-N-methyl-4-[[3-[1-(pyrimidin-4-ylmethyl)-3-(trifluoromethyl)pyrazol-4-yl]imidazo[1,2-a]pyrazin-8-yl]amino]benzamide], the IC90 was determined as 0.701 µM.

The experiment is the same for the next values; noted with them: read-out: A. baumannii ATCC 17961 IC90, strain ATCC 17961, OD600 growth over 16 h.
Turning to `Cc1cc(Nc2nccn3c(-c4c[nH]nc4C(F)(F)F)cnc23)ccc1C(=O)N1CCN(C(=O)[C@@H]2C[C@@H](O)CN2)CC1` [Example 459, formic acid; [4-[(2S,4R)-4-hydroxypyrrolidine-2-carbonyl)piperazin-1-yl]-[2-methyl-4-[[3-[3-(trifluoromethyl)-1H-pyrazol-4-yl]imidazo[1,2-a]pyrazin-8-yl]amino]phenyl]methanone], the concentration for an effect of 90% (IC90) stood at 0.762 µM.

The same experiment, now with this note: strain ATCC 17961, OD600 growth over 16 h, read-out: A. baumannii ATCC 17961 IC90.
As for `C#CCn1cc(-c2cnc3c(Nc4cc(C)c(C(=O)NCCOCCN)c(F)c4)nccn23)c(C(F)(F)F)n1` [Example 59, N-[2-(2-aminoethoxy)ethyl]-2-fluoro-6-methyl-4-[[3-[1-prop-2-ynyl-3-(trifluoromethyl)pyrazol-4-yl]imidazo[1,2-a]pyrazin-8-yl]amino] benzamide], the IC90 is 0.216 µM.
